Assay results from patent US20140213576A1, “NOVEL COMPOUND USEFUL FOR THE TREATMENT OF DEGENERATIVE AND INFLAMMATORY DISEASES” (GALAPAGOS NV, priority 2013, published 2014).
Values joined by “and” are separate entries in the source; they are usually repeats but may differ in a detail not shown here. Equal entries are not always repeated.

Tests used:
JAK2 = molecular target: T1, JAK2 (Homo sapiens, UniProt O60674); test: JAK2 Ki determination assay (kinase tracer 236 binding); settings: binding experiment, 25 nM kinase tracer 236; read-out: Ki against JAK2
T1 construct: Recombinant human JAK2 catalytic domain (amino acids 808-1132; catalog number PV4210); purchased Invitrogen PV4210
T1 sequence (O60674 808-1132): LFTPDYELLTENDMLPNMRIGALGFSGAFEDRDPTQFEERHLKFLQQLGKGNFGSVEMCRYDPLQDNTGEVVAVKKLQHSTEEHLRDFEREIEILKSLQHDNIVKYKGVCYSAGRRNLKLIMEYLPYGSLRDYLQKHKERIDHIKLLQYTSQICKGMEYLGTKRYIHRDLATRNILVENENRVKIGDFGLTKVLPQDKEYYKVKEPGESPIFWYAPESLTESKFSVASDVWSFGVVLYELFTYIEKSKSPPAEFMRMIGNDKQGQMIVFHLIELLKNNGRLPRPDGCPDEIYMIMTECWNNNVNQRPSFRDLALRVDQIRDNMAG
Experimental: (§1) JAK2 (Invitrogen, PV4210) was used at a final concentration of 5 nM. The binding experiment was performed in 50 mM Hepes pH 7.5, 0.01% Brij-35, 10 mM MgCl2, 1 mM EGTA using 25 nM kinase tracer 236 (Invitrogen, PV5592) and 2 nM Eu-anti-GST (Invitrogen, PV5594) with varying compound concentrations. Detection of tracer was performed according to the manufacturer's procedure.

[1] = molecular target: T2, Recombinant human JAK3 catalytic domain (Homo sapiens, UniProt P52333); test: JAK3 inhibition assay (polyGT substrate); format: biochemical; settings: 1 μM ATP, individual determinations, read-out: IC50 against JAK3
T2 construct: Recombinant human JAK3 catalytic domain (amino acids 781-1124; catalog number PV3855); purchased Invitrogen PV3855
T2 sequence (P52333 781-1124): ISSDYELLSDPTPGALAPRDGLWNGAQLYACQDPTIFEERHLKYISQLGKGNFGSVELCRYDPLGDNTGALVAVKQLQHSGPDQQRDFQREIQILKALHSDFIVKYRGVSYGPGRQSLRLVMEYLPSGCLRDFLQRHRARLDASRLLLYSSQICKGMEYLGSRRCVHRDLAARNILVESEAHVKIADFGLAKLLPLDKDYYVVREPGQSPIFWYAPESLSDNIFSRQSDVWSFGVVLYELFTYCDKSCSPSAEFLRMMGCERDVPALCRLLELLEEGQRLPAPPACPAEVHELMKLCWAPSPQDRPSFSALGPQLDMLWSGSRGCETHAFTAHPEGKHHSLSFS
Experimental: Recombinant human JAK3 catalytic domain (amino acids 781-1124; catalog number PV3855) was purchased from Invitrogen. 0.5 ng JAK3 protein was incubated with 2.5 μg polyGT substrate (Sigma catalog number P0275) in kinase reaction buffer (25 mM Tris pH 7.5, 0.5 mM EGTA, 10 mM MgCl2, 2.5 mM DTT, 0.5 mM Na3VO4, 5 mM b-glycerolphosphate, 0.01% Triton X-100, 1 μM non-radioactive ATP, 0.25 μCi ^33P-gamma-ATP (GE Healthcare, catalog number AH9968) final concentrations) with or without 5 μL containing test compound or vehicle (DMSO, 1% final concentration), in a total volume of 25 μL, in a polypropylene 96-well plate (Greiner, V-bottom). […]
6005177) using a cell harvester (Perkin Elmer). […] 40 μL/well of Microscint-20 was added, the top of the plates was sealed and readout was performed using the Topcount (Perkin Elmer). Kinase activity was calculated by subtracting counts per min (cpm) obtained in the presence of a positive control inhibitor (10 μM staurosporine) from cpm obtained in the presence of vehicle. The ability of a test compound to inhibit this activity was determined as:
Percentage inhibition=((cpm determined for sample with test compound present−cpm determined for sample with positive control inhibitor) divided by (cpm determined in the presence of vehicle−cpm determined for sample with positive control inhibitor))*100. […]

TYK2 = molecular target: T3, TYK2 (Homo sapiens, UniProt P29597); test: TYK2 Ki determination assay (kinase tracer 236 binding); settings: binding experiment, 50 nM kinase tracer 236; read-out: Ki against TYK2
T3 construct: purchased Carna Biosciences 09CBS-0983D
T3 sequence (P29597 whole entry): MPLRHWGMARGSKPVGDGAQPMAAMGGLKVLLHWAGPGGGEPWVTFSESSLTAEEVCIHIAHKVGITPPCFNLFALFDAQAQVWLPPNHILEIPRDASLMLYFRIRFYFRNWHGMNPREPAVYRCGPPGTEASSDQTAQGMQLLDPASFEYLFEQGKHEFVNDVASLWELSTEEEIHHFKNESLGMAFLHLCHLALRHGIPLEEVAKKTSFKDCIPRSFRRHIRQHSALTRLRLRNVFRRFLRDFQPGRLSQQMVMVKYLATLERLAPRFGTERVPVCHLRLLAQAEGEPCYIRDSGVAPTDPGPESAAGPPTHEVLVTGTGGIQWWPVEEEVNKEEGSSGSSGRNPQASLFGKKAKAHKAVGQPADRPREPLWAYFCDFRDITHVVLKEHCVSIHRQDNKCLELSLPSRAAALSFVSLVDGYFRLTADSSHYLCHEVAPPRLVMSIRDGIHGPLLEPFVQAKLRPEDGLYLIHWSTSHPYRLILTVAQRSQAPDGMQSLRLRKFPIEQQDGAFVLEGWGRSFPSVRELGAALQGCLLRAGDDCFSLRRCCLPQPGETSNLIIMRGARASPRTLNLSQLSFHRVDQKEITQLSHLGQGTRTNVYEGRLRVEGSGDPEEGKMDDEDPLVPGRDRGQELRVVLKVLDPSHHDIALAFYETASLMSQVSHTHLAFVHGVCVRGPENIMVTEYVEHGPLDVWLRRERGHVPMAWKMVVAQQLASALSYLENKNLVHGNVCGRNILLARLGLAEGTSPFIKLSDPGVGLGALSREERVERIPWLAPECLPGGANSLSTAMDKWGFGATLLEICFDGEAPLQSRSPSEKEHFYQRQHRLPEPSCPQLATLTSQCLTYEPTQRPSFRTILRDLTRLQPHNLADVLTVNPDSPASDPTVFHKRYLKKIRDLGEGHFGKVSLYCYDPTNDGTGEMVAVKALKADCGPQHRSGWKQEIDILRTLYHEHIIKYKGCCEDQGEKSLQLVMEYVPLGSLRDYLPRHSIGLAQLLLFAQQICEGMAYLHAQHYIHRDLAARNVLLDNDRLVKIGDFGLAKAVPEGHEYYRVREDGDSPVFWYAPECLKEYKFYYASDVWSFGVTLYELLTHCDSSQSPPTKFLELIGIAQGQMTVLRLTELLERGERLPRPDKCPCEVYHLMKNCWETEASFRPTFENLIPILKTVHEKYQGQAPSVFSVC
Experimental: as §1, with “TYK2 (Carna Biosciences, 09CBS-0983D)” for “JAK2 (Invitrogen, PV4210)”, “50” for “25”, “manufacturers’” for “manufacturer's”

HeLa cells = test: JAK-STAT signalling assay (OSM-triggered pSTAT1(2)-luciferase reporter); format: cell-based; settings: human OSM 33 ng/mL, STAT1 luciferase reporter, individual determinations
Experimental: HeLa cells were maintained in Dulbecco's Modified Eagle's Medium (DMEM) containing 10% heat inactivated fetal calf serum, 100 U/mL penicillin and 100 μg/mL streptomycin. HeLa cells were used at 70% confluence for transfection. 20,000 cells in 87 μL cell culture medium were transiently transfected with 40 ng pSTAT1(2)-luciferase reporter (Panomics), 8 ng of LacZ reporter as internal control reporter and 52 ng of pBSK using 0.32 μL Jet-PEI (Polyplus) as transfection reagent per well in 96-well plate format. After overnight incubation at 37° C., 5% CO2, transfection medium was removed. 81 μL of DMEM+1.5% heat inactivated fetal calf serum was added. […]
40 μL of cell lysate was used to read β-galactosidase activity by adding 180 μL β-Gal solution (30 μL ONPG 4 mg/mL+150 μL β-Galactosidase buffer (0.06 M Na2HPO4, 0.04 M NaH2PO4, 1 mM MgCl2)) for 20 min. The reaction was stopped by addition of 50 μL Na2CO3 1 M. Absorbance was read at 405 nm.
Luciferase activity was measured using 40 μL cell lysate plus 40 μL of Steadylite® as described by the manufacturer (Perkin Elmer), on the Envision (Perkin Elmer). […]
Percentage inhibition=((fluorescence determined in the presence of vehicle−fluorescence determined for sample with test compound present) divided by (fluorescence determined in the presence of vehicle−fluorescence determined for sample without trigger))[…]. […]

BA/F3 (ATCC CRL-12015) = test: BA/F3 viability assay; format: cell-based, murine; settings: IL3-dependent viability, ATP-lite, individual determinations
Excerpt: The protocol describes the methods to analyse the activity of compounds on the ability to sustain the IL3-dependent viability of BA/F3 (ATCC CRL-12015; Collins et al, 1992).

Ki (JAK2): 62.6 nM | IC50 [1]: 1320 nM and 523 nM and 460 nM and 345 nM and 689 nM and 685 nM and 515 nM and 324 nM and 537 nM | Ki (TYK2): 336 nM | IC50 (HeLa cells; Homo sapiens, HeLa): 1650 nM | IC50 (HeLa cells; listed as compound of the invention): 1660 nM | IC50 (BA/F3 (ATCC CRL-12015); 48 h, listed as compound of the invention): 8020 nM | IC50 (BA/F3 (ATCC CRL-12015); Mus musculus, BaF3, 48 h): > 11100 nM
SMILES: CCc1cc(C2CN(S(C)(=O)=O)C2)ncc1N(C)c1cc2c(cn1)ncn2C [Compound 1, [4-Ethyl-6-(1-methanesulfonyl-azetidin-3-yl)-pyridin-3-yl]-methyl-(1-methyl-1H-imidazo[4,5-d]pyridin-6-yl)-amine]
